Where only a bound is given, the exact number is not on record here.

The assay has as its target T1, Fatty-acid amide hydrolase 1 (Mus musculus, UniProt O08914).
T1 sequence (O08914 whole entry): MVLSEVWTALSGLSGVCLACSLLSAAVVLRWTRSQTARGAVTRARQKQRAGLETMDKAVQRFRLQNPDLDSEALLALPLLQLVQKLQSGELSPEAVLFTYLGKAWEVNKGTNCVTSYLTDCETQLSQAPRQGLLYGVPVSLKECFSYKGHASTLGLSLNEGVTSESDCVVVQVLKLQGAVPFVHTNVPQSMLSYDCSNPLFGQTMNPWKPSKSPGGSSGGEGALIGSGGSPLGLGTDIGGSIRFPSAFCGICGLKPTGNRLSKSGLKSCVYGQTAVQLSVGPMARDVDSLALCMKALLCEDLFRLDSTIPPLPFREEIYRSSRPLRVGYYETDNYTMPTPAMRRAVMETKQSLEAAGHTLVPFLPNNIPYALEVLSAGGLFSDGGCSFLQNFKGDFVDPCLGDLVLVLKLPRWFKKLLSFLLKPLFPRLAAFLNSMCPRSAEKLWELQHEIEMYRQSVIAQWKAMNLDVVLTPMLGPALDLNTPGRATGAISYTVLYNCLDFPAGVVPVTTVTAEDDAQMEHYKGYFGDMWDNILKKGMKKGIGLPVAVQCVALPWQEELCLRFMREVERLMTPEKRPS
Kind of assay: Inhibition of mouse FAAH isolated from brain homogenate using [3H-ethanolamine]AEA as substrate incubated for 20 mins prior to substrate addition measured after 15 mins by beta counting analysis.
The term IC50 denotes the point on the concentration scale where inhibition reaches its midpoint. As to `C#CCCCCCCCCCOC(=O)c1ccn(-c2cccc(OC(=O)NCCCCCCc3ccccc3)c2)c1`, the IC50 was > 0.2 µM. A word on the Ki: it is the equilibrium dissociation constant of an inhibitor or competing ligand from its target. A higher Ki goes with weaker binding. Compound `NC(=O)c1ccn(-c2cccc(OC(=O)NCCOCCOc3ccccc3F)c2)c1` showed a half-maximal inhibitory concentration (IC50) of 0.069 µM and a Ki of 0.018 µM.

As to `CCCCNC(=O)Oc1cccc(-c2oc(C)cc2C(N)=O)c1`, half-maximal inhibition (IC50) required 0.53 µM and the inhibitory constant (Ki) came out at 0.14 µM. For `Cc1oc(-c2cccc(OC(=O)NCCCCCCc3ccccc3)c2)cc1C(N)=O` the same measures were 0.018 µM and 0.0048 µM.

As for `Cc1cc(C(N)=O)c(-c2cccc(OC(=O)NC3CCCCC3)c2)o1`, the 50% inhibitory concentration (IC50) was > 0.07 µM. Same read-out and setting: then `CCCCNC(=O)Oc1cccc(-n2ccc(C(=O)OCCCCCCc3ccccc3)c2)c1`, with > 0.2 µM; and `Cc1cc(C(N)=O)c(-c2cccc(OC(=O)NC3CCCCC3)c2)s1`, with > 0.2 µM.

These data come from ChEMBL document CHEMBL2163339, “Discovery of potent inhibitors of human and mouse fatty acid amide hydrolases” (J Med Chem, 2012).
